The numbers were not newly measured in patent US20180071214A1, “Pharmaceutical Oral Dose Formulation and Composition of Matter” (priority 2016, published 2018), which cites them from elsewhere.

Molecules are shown by their SMILES.

For series [1] the following is noted: p-glycoprotein substrate.

For `CC[C@]1(O)C[C@@H]2CN(CCc3c([nH]c4ccccc34)[C@@](C(=O)OC)(c3cc4c(cc3OC)N(C)[C@H]3[C@@](O)(C(=O)OC)[C@H](OC(C)=O)[C@]5(CC)C=CCN6CC[C@]43[C@@H]65)C2)C1` [vinblastinee], the “tissue effect after intravenous injection” value was “severe tissue irritation and even damage”. In addition, the intestinal absorption entry in series [1] is “negligible intestinal absorption”.
